Results published in US9255100B2 (BAYER INTELLECTUAL PROPERTY GMBH, priority 2010, dated 2016).

Biological target: T1, N-terminally GST-tagged human full length recombinant Mps-1 kinase (Homo sapiens, UniProt P33981)
T1 construct: N-terminally GST-tagged human full length recombinant Mps-1 kinase; purchased Invitrogen, Karslruhe, Germany PV4071
T1 sequence (P33981 1-857): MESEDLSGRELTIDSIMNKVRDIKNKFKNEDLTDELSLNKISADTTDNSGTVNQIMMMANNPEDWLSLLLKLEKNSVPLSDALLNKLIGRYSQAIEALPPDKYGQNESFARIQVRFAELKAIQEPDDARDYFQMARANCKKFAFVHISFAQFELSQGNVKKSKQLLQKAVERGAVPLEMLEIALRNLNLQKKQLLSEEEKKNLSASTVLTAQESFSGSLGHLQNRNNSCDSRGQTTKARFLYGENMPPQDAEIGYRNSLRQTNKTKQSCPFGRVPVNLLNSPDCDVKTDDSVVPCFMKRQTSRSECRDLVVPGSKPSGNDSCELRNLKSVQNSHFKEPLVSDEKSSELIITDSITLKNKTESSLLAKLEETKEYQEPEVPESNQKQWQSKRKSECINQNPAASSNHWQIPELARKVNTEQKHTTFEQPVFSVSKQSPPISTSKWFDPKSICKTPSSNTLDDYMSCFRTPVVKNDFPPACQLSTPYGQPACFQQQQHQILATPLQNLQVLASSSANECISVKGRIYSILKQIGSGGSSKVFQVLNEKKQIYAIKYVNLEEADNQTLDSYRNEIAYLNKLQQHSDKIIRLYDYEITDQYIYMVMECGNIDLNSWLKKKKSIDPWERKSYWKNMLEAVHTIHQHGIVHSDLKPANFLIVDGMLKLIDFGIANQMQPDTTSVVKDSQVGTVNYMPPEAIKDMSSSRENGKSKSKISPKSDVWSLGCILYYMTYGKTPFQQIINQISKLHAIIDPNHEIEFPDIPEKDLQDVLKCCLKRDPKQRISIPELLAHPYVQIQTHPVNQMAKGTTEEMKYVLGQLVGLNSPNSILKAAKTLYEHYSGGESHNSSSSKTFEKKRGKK
Experiment: Mps-1 kinase assay (TR-FRET)
Assay type: biochemical
Conditions: 10 μM ATP, 1 μM peptide substrate, 60 min at 22° C., read-out: Mps1 IC50
Protocol: The human kinase Mps-1 phosphorylates a biotinylated substrate peptide. Detection of the phosphorylated product is achieved by time-resolved fluorescence resonance energy transfer (TR-FRET) from Europium-labelled anti-phospho-Serine/Threonine antibody as donor to streptavidin labelled with cross-linked allophycocyanin (SA-XLent) as acceptor. Compounds are tested for their inhibition of the kinase activity.
N-terminally GST-tagged human full length recombinant Mps-1 kinase (purchased from Invitrogen, Karslruhe, Germany, cat. no PV4071) was used. As substrate for the kinase reaction a biotinylated peptide of the amino-acid sequence […] (C-terminus in amide form, purchased from Biosynthan GmbH, Berlin) was used.
The concentration of Mps-1 in the assay was adjusted to the activity of the enzyme lot and was chosen appropriate to have the assay in the linear range, typical enzyme concentrations were in the range of about 1 nM (final conc. in the 5 μl assay volume).
The resulting mixture was incubated 1 h at 22° C. to allow the binding of the phosphorylated peptide to the anti-phospho(Ser/Thr)-Europium-antibody. Subsequently the amount of phosphorylated substrate was evaluated by measurement of the resonance energy transfer from the Europium-labelled anti-phospho(Ser/Thr) antibody to the Streptavidin-XLent.

Compound | IC50 [nM]
Cc1cc(-c2cnc3c(NCC4CC[S+]([O-])CC4)cc(Oc4ccc(F)cc4)nn23)ccc1C(=O)NC1CC1 (mixture of isomers) [Example 295B, N-cyclopropyl-4-[6-(4-fluorophenoxy)-8-({[(cis/trans)-1-oxidotetrahydro-2H-thiopyran-4-yl]methyl}amino)imidazo[1,2-b]pyridazin-3-yl]-2-methylbenzamide] | 0.2
Cc1cc(-c2cnc3c(NCC4CC[S+]([O-])CC4)cc(Oc4cccc(F)c4)nn23)ccc1C(=O)NC1CC1 (mixture of isomers) [Example 298B, N-cyclopropyl-4-[6-(3-fluorophenoxy)-8-({[(cis/trans)-1-oxidotetrahydro-2H-thiopyran-4-yl]methyl}amino)imidazo[1,2-b]pyridazin-3-yl]-2-methylbenzamide] | 0.1

Same assay, conditions: Mps1 IC50 [nM], 10 μM ATP, 1 μM peptide substrate, 60 min at 22° C.

Compound | IC50 [nM]
CC=C(C)c1cc(NCC(C)(C)O)c2ncc(-c3ccc(-c4cnc(C5CC5)[nH]4)cc3)n2n1 (mixture of isomers) [Example 1, 1-({6-[(2E/Z)-But-2-en-2-yl]-3-[4-(2-cyclopropyl-1H-imidazol-5-yl)phenyl]imidazo[1,2-b]pyridazin-8-yl}amino)-2-methylpropan-2-ol] | 61.1
CC=Cc1cc(NCC(C)(C)O)c2ncc(-c3ccc(-c4cnc(C5CC5)[nH]4)cc3)n2n1 (mixture of isomers) [Example 2, 1-({3-[4-(2-Cyclopropyl-1H-imidazol-5-yl)phenyl]-6-[(1E/Z)-prop-1-en-1-yl]imidazo[1,2-b]pyridazin-8-yl}amino)-2-methylpropan-2-ol] | 90.5
CC=Cc1cc(NCCC(F)(F)F)c2ncc(-c3ccc(C(=O)NC4CC4)c(C)c3)n2n1 (mixture of isomers) [Example 23, N-cyclopropyl-2-methyl-4-{6-[(1E/Z)-prop-1-en-1-yl]-8-[(3,3,3-trifluoropropyl)amino]imidazo[1,2-b]pyridazin-3-yl}benzamide] | 2.4
CC=Cc1cc(NCC(C)(C)O)c2ncc(-c3ccc(C(=O)NC4CC4)c(C)c3)n2n1 (mixture of isomers) [Example 24, N-cyclopropyl-4-{8-[(2-hydroxy-2-methylpropyl)amino]-6-[(1E/Z)-prop-1-en-1-yl]imidazo[1,2-b]pyridazin-3-yl}-2-methylbenzamide] | 23.8
Cc1cc(-c2cnc3c(NCC4CC[S+]([O-])CC4)cc(Oc4ccc(Cl)cc4)nn23)ccc1C(=O)NC1CC1 (mixture of isomers) [Example 294B, 4-[6-(4-chlorophenoxy)-8-({[(cis/trans)-1-oxidotetrahydro-2H-thiopyran-4-yl]methyl}amino)imidazo[1,2-b]pyridazin-3-yl]-N-cyclopropyl-2-methylbenzamide] | 0.2
c1cc(-c2cc(NCC3CCCCO3)c3ncc(-c4ccc(-c5cnc(C6CC6)[nH]5)cc4)n3n2)ccn1 (racemic) [Example 29, (RS) 3-[4-(2-Cyclopropyl-1H-imidazol-5-yl)phenyl]-6-(pyridin-4-yl)-N-(tetrahydro-2H-pyran-2-ylmethyl)imidazo[1,2-b]pyridazin-8-amine] | 80.2
Cc1cc(-c2cnc3c(NCC4(C)CCCO4)cc(-c4ccncc4)nn23)ccc1C(=O)NC1CC1 (racemic) [Example 30, (RS)—N-cyclopropyl-2-methyl-4-[8-{[(2-methyltetrahydrofuran-2-yl)methyl]amino}-6-(pyridin-4-yl)imidazo[1,2-b]pyridazin-3-yl]benzamide] | 2.1
Cc1cc(-c2cnc3c(NCC4COCCO4)cc(-c4ccncc4)nn23)ccc1C(=O)NC1CC1 (racemic) [Example 36, (RS)—N-cyclopropyl-4-{8-[(1,4-dioxan-2-ylmethyl)amino]-6-(pyridin-4-yl)imidazo[1,2-b]pyridazin-3-yl}-2-methylbenzamide] | 3
Cc1cc(-c2cnc3c(NCC4CCCCO4)cc(-c4ccncc4)nn23)ccc1C(=O)NC1CC1 (racemic) [Example 37, (RS)—N-cyclopropyl-2-methyl-4-{6-(pyridin-4-yl)-8-[(tetrahydro-2H-pyran-2-ylmethyl)amino]imidazo[1,2-b]pyridazin-3-yl}benzamide] | < 1
Cc1cc(-c2cnc3c(NCC4CN(C)CCO4)cc(Sc4ccccc4)nn23)ccc1C(=O)NC1CC1 (racemic) [Example 56, (RS)—N-cyclopropyl-2-methyl-4-[8-{[(4-methylmorpholin-2-yl)methyl]amino}-6-(phenylsulfanyl)imidazo[1,2-b]pyridazin-3-yl]benzamide] | < 1
Cc1cc(-c2cnc3c(NCCC(F)(F)F)cc([S+]([O-])c4cccc(F)c4)nn23)ccc1C(=O)NC1CC1 (racemic) [Example 83B, (RS)—N-cyclopropyl-4-{6-[(3-fluorophenyl)sulfinyl]-8-[(3,3,3-trifluoropropyl)amino]imidazo[1,2-b]pyridazin-3-yl}-2-methylbenzamide] | 0.8
Cc1cc(-c2cnc3c(NCC(C)C)cc(SCC4CCCO4)nn23)ccc1C(=O)NC1CC1 (racemic) [Example 194, (RS)—N-cyclopropyl-2-methyl-4-{8-[(2-methylpropyl)amino]-6-[(tetrahydrofuran-2-ylmethyl)sulfanyl]imidazo[1,2-b]pyridazin-3-yl}benzamide] | 2.5
Cc1cc(-c2cnc3c(NCC(O)C(F)(F)F)cc(Cl)nn23)ccc1C(=O)NC1CC1 (racemic) [Example 205, (RS)-4-{6-Chloro-8-[(3,3,3-trifluoro-2-hydroxypropyl)amino]imidazo[1,2-b]pyridazin-3-yl}-N-cyclopropyl-2-methylbenzamide] | 72.7
CSc1cc(NCC(O)C(F)(F)F)c2ncc(-c3ccc(C(=O)NC4CC4)c(C)c3)n2n1 (racemic) [Example 206, (RS)N-cyclopropyl-2-methyl-4-{6-(methylsulfanyl)-8-[(3,3,3-trifluoro-2-hydroxypropyl)amino]imidazo[1,2-b]pyridazin-3-yl}benzamide] | 6.2
Cc1cc(-c2cnc3c(NCC(O)C(F)(F)F)cc(-c4ccnn4C)nn23)ccc1C(=O)NC1CC1 (racemic) [Example 208, (RS)—N-cyclopropyl-2-methyl-4-{6-(1-methyl-1H-pyrazol-5-yl)-8-[(3,3,3-trifluoro-2-hydroxypropyl)amino]imidazo[1,2-b]pyridazin-3-yl}benzamide] | 2
Cc1cc(-c2cnc3c(NCC(O)C(F)(F)F)cc(Sc4cccc(F)c4)nn23)ccc1C(=O)NC1CC1 (racemic) [Example 216, (RS)—N-cyclopropyl-4-{6-[(3-fluorophenyl)sulfanyl]-8-[(3,3,3-trifluoro-2-hydroxypropyl)amino]imidazo[1,2-b]pyridazin-3-yl}-2-methylbenzamide] | < 1
Cc1cc(-c2cnc3c(NCC4CN(C)CCO4)cc(-c4ccc(F)cc4)nn23)ccc1C(=O)NC1CC1 (racemic) [Example 229, (RS)—N-cyclopropyl-4-[6-(4-fluorophenyl)-8-{[(4-methylmorpholin-2-yl)methyl]amino}imidazo[1,2-b]pyridazin-3-yl]-2-methylbenzamide] | 2.6
Cc1cc(-c2cnc3c(NCC(C)(C)O)cc(OCC4CC4(F)F)nn23)ccc1C(=O)NC1CC1 (racemic) [Example 240, (RS)—N-cyclopropyl-4-{6-[(2,2-difluorocyclopropyl)methoxy]-8-[(2-hydroxy-2-methylpropyl)amino]imidazo[1,2-b]pyridazin-3-yl}-2-methylbenzamide] | 1.2
Cc1cc(-c2cnc3c(NCC(C)(C)O)cc(NC4CCNC4)nn23)ccc1C(=O)NC1CC1 (racemic) [Example 272, (RS)—N-cyclopropyl-4-{8-[(2-hydroxy-2-methylpropyl)amino]-6-(pyrrolidin-3-ylamino)imidazo[1,2-b]pyridazin-3-yl}-2-methylbenzamide] | 21.1
Cc1cc(-c2cnc3c(NCCCC(C)O)cc(-c4ccccc4CO)nn23)ccc1C(=O)NC1CC1 (racemic) [Example 342, (RS)-N-cyclopropyl-4-{6-[2-(hydroxy-methyl)phenyl]-8-[(4-hydroxy-pentyl)amino]imidazo[1,2-b]pyridazin-3-yl}-2-methylbenzamide] | 6.9
